How the values were obtained:
[1] = target: T1, Sodium-dependent dopamine transporter (Homo sapiens, UniProt Q01959); test: Ratio of uptake inhibition to binding affinity to human DAT (IC50/Ki)
[2] = target: T1, Sodium-dependent dopamine transporter; test: Compound was tested for inhibition of [3H]DA binding to dopamine (DAT) transporter in HEK cells; type: cell-based, HEK293
[3] = target: T2, Sodium-dependent noradrenaline transporter (Homo sapiens, UniProt P23975); test: Compound was tested for inhibition of [125I]-RTI-55 binding to norepinephrine transporter HEK cells; type: cell-based, HEK293
T2 sequence (P23975 whole entry): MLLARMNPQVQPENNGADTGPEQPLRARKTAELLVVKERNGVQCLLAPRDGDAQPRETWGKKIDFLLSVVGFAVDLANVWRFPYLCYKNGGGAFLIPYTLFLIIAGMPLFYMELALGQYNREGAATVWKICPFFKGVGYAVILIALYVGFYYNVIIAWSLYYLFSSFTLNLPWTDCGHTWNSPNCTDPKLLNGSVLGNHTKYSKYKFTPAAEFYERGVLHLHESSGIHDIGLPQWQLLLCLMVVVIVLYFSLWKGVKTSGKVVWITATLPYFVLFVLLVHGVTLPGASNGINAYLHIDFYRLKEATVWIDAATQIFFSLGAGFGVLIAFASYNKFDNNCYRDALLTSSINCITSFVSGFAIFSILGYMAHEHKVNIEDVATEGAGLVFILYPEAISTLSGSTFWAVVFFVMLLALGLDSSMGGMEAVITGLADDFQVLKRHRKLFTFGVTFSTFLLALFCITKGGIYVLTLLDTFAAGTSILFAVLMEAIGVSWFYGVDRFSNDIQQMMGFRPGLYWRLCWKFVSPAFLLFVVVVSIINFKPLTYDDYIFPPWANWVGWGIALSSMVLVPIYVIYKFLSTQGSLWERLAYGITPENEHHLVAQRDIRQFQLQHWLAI

[4] = target: T2, Sodium-dependent noradrenaline transporter; test: Compound was tested for inhibition of [3H]NE binding to norepinephrine transporter HEK cells; type: cell-based, HEK293
[5] = target: T3, Sodium-dependent serotonin transporter (Homo sapiens, UniProt P31645); test: Compound was tested for inhibition of [125I]RTI-55 binding to Serotonin transporter in HEK cells; type: cell-based, HEK293
Target sequence in this assay (P31645 whole entry): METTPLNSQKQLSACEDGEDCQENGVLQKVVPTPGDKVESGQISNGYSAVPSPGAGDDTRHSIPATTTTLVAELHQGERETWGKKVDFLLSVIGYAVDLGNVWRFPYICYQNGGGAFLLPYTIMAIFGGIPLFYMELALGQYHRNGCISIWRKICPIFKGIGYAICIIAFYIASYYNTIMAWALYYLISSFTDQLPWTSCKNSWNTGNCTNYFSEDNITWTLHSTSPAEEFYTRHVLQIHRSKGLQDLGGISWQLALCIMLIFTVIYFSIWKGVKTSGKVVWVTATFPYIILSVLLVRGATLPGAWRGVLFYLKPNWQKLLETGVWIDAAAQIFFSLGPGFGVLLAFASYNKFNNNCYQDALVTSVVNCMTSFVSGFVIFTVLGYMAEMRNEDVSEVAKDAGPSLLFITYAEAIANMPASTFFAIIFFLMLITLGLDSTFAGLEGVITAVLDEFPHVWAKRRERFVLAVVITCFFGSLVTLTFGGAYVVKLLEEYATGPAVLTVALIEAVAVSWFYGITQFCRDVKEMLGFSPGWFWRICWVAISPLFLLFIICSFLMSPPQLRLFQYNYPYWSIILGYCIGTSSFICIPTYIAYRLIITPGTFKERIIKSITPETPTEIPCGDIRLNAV

[6] = target: T3, Sodium-dependent serotonin transporter; test: Ratio of uptake inhibition to binding affinity to human SERT (IC50/Ki)
Target sequence in this assay (P31645 whole entry, looked up): as the sequence (P31645 whole entry) above

[7] = target: T3, Sodium-dependent serotonin transporter; test: Compound was tested for inhibition of [3H]5-HT binding to Serotonin transporter in HEK cells; type: cell-based, HEK293
Target sequence in this assay (P31645 whole entry): as above

[8] = target: T1, Sodium-dependent dopamine transporter; test: Compound was tested for inhibition of [125I]RTI-55 binding to dopamine transporter in HEK cells; type: cell-based, HEK293
[9] = target: T2, Sodium-dependent noradrenaline transporter; test: Ratio of uptake inhibition to binding affinity to human NET (IC50/Ki)

T1 sequence (Q01959 whole entry): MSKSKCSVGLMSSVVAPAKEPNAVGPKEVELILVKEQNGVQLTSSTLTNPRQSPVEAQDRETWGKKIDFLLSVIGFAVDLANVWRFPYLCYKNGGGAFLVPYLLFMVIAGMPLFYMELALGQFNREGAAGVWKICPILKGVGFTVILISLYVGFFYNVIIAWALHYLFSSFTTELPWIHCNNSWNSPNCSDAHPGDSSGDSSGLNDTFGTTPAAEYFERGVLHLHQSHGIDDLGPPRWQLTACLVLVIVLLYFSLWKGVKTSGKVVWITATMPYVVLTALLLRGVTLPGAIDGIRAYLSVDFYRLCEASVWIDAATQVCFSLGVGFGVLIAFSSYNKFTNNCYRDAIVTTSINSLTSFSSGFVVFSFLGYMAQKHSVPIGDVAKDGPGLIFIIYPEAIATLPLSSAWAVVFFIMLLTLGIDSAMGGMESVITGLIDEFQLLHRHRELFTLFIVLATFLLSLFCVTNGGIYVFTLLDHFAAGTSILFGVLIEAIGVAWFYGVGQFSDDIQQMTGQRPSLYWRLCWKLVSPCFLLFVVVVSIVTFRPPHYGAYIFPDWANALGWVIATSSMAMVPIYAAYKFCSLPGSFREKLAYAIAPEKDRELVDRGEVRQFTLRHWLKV

## CN1C2CCC1C(C(=O)NCCCCCCCCNC(=O)C1C(c3ccc(Cl)cc3)CC3CCC1N3C)C(c1ccc(Cl)cc1)C2 (configuration not stated)
[1]
  Ratio: 130
[2]
  IC50: 0.871 µM
[3]
  Ki: 0.83 µM
[4]
  IC50: 0.487 µM
[5]
  Ki: 0.0079 µM
[6]
  Ratio: 12.5
[7]
  IC50: 0.099 µM
[8]
  Ki: 0.0067 µM

## COC(=O)C1C(c2ccc(Cl)cc2)CC2CCC1N2C (configuration not stated)
[2]
  IC50: 0.0017 µM
[8]
  Ki: 0.0011 µM

## CN1C2CCC1C(C(=O)NCCCCCCNC(=O)C1C(c3ccc(Cl)cc3)CC3CCC1N3C)C(c1ccc(Cl)cc1)C2 (configuration not stated)
[1]
  Ratio: 76.3
[2]
  IC50: 1.4 µM
[3]
  Ki: 0.33 µM
[9]
  Ratio: 5.59
[4]
  IC50: 1.85 µM
[5]
  Ki: 0.102 µM
[6]
  Ratio: 2.2
[7]
  IC50: 0.225 µM
[8]
  Ki: 0.0184 µM

## CN1C2CCC1C(C(=O)NCCCCNC(=O)C1C(c3ccc(Cl)cc3)CC3CCC1N3C)C(c1ccc(Cl)cc1)C2 (configuration not stated)
[1]
  Ratio: 76.8
[2]
  IC50: 1.67 µM
[3]
  Ki: 2.07 µM
[9]
  Ratio: 1.09
[4]
  IC50: 2.26 µM
[5]
  Ki: 3.14 µM
[6]
  Ratio: 0.06
[7]
  IC50: 0.176 µM
[8]
  Ki: 0.0217 µM

## CN1C2CCC1C(C(=O)NCCCNC(=O)C1C(c3ccc(Cl)cc3)CC3CCC1N3C)C(c1ccc(Cl)cc1)C2 (configuration not stated)
[1]
  Ratio: 0.8
[2]
  IC50: 0.0522 µM
[3]
  Ki: 2.97 µM
[9]
  Ratio: 0.09
[4]
  IC50: 0.266 µM
[5]
  Ki: 0.357 µM
[6]
  Ratio: 1.17
[7]
  IC50: 0.441 µM
[8]
  Ki: 0.0651 µM

From ChEMBL document CHEMBL1136813, “Bivalent biogenic amine reuptake inhibitors” (Bioorg Med Chem Lett, 2003)
